This note sets out measurements from patent US20260022142A1, “MACROCYCLIC IMMUNOMODULATORS” (Bristol-Myers Squibb Company, priority 2022, published 2026).

Usually IC50 stands for the midpoint of a concentration-inhibition curve.

Structures are written as SMILES. Bridge positions count the residues as written; N and C are the ends. Square brackets hold non-standard residues; d marks the D form. Peptide text beside a SMILES is read from it. * marks the point of attachment. Phe(4-COOH) = N[C@@H](Cc1ccc(C(=O)O)cc1)C(=O)O; Bip = N[C@@H](Cc1ccc(-c2ccccc2)cc1)C(=O)O; Phe(3-OMe) = COc1cccc(C[C@H](N)C(=O)O)c1; Phe(4-CN) = N#Cc1ccc(C[C@H](N)C(=O)O)cc1; Phe(3-Me) = Cc1cccc(C[C@H](N)C(=O)O)c1; Val(3-OH) = CC(C)(O)[C@H](N)C(=O)O; Cha = N[C@@H](CC1CCCCC1)C(=O)O; Cit = NC(=O)NCCC[C@H](N)C(=O)O; Carboxymethyl = O=C(O)C*; Orn = NCCC[C@H](N)C(=O)O; Aun = NCCCCCCCCCCC(=O)O; Dab = NCC[C@H](N)C(=O)O; Dap = NC[C@H](N)C(=O)O; AEEA = NCCOCCOCC(=O)O

T1 sequence (Q15116 25-288): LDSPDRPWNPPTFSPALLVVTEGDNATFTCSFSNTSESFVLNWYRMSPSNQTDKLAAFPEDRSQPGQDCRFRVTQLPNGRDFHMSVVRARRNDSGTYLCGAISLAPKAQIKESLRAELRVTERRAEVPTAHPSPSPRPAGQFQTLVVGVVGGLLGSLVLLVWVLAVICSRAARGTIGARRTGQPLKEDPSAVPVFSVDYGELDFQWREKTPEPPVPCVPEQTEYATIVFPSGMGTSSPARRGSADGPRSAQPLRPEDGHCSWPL

The assay addresses T1, PD-1/PD-L1 interaction (PE-labeled human PD-L1-Ig binding to Jurkat cell line over-expressing human PD-1) (Homo sapiens, UniProt Q15116).
T1 construct: expressed in transfected cells; host or cells: Jurkat
The assay can be described thus: Jurkat-PD-1 Cell Binding High-Content Screening Assay (CBA). In kind it is cell-based. Conditions: Jurkat cell line over-expressing human PD-1; PE-labeled PD-L1-Ig 20 nM final; read-out: Jurkat hPD1-PDL1 IC50. On the procedure: Example 2: Jurkat-PD-1 Cell Binding High-Content Screening Assay (CBA)
Phycoerythrin (PE) was covalently linked to the Ig epitope tag of human PD-L1-Ig and fluorescently-labeled PD-L1-Ig was used for binding studies with a Jurkat cell line over-expressing human PD-1 (Jurkat-PD-1). Briefly, 8×10^3 Jurkat-hPD-1 cells were seeded into 384 well plates in 20 μl of DMEM supplemented with 10% fetal calf serum. 100 nl of compound was added to cells followed by incubation at 37° C. for 2 h. Then, 5 μl of PE-labeled PD-L1-Ig (20 nM final), diluted in DMEM supplemented with 10% fetal calf serum. After 1 hour incubation, cells were fixed with 4% paraformaldehyde in dPBS containing 10 μg/ml Hoechst 33342 and then washed 3× in 100 μl dPBS. Data was collected and processed using a Cell Insight NXT High Content Imager and associated software.
As for `Cc1cccc(C[C@@H]2NC(=O)[C@H](CC(=O)O)NC(=O)[C@H](Cc3ccc(OCC(=O)O)cc3)NC(=O)[C@H](CN)NC(=O)CSC[C@@H](C(=O)N[C@@H](CCN)C(=O)NCCCCCCCCCCCCC(=O)O)NC(=O)[C@H](C(C)O)NC(=O)[C@H](C(C)C)NC(=O)[C@H](CC3CCCCC3)NC(=O)[C@H](CCN)NC(=O)[C@@H](CC(C)C)NC(=O)[C@H](CCCN)NC(=O)[C@H](CCCNC(N)=O)NC(=O)[C@H](Cc3ccc(-c4ccccc4)cc3)NC(=O)[C@H](C(C)C)NC2=O)c1` (mixture of isomers) [Compound 3126], the half-maximal inhibitory concentration (IC50) was 68.6 nM.

Consider `Cc1cccc(C[C@@H]2NC(=O)[C@H](CC(=O)O)NC(=O)[C@H](Cc3ccc(OCC(=O)O)cc3)NC(=O)[C@H](CN)NC(=O)CSC[C@@H](C(=O)N[C@@H](C)C(=O)N[C@@H](CCC(=O)O)C(=O)NCC(=O)NCCCCCCCCCCC(=O)O)NC(=O)[C@H]([C@@H](C)O)NC(=O)[C@H](C(C)C)NC(=O)[C@H](CC3CCCCC3)NC(=O)[C@H](CCN)NC(=O)[C@@H](CC(C)C)NC(=O)[C@H](CCCN)NC(=O)[C@H](CCCNC(N)=O)NC(=O)[C@H](Cc3ccc(-c4ccccc4)cc3)NC(=O)[C@H](C(C)C)NC2=O)c1` [Compound 1000] ({CH2CO}-[Dap]Y(Carboxymethyl)D[Phe(3-Me)]V[Bip][Cit][Orn][dL][Dab][Cha]VTCAEG[Aun]-OH; thioether N-14), for which the half-maximal inhibitory concentration (IC50) stood at 5.5 nM.

As to `COc1cccc(C[C@@H]2NC(=O)[C@H](CC(=O)O)NC(=O)[C@H](Cc3ccc(OCC(=O)O)cc3)NC(=O)[C@H](CN)NC(=O)CSC[C@@H](C(=O)N[C@@H](CCN)C(=O)NCCOCCOCC(=O)NCCCCCCCCCCC(=O)O)NC(=O)[C@H](CCCN)NC(=O)[C@H](C(C)C)NC(=O)[C@H](CC3CCCCC3)NC(=O)[C@H](CCN)NC(=O)[C@@H](CC(C)C)NC(=O)[C@H](CCCN)NC(=O)[C@H](Cc3ccc(O)cc3)NC(=O)[C@H](Cc3ccc(-c4ccccc4)cc3)NC(=O)[C@H](Cc3ccc(OCC(=O)O)cc3)NC2=O)c1` [Compound 1001] ({CH2CO}-[Dap]Y(Carboxymethyl)D[Phe(3-OMe)]Y(Carboxymethyl)[Bip]Y[Orn][dL][Dab][Cha]V[Orn]C[Dab][AEEA][Aun]-OH; thioether N-14), the half-maximal inhibitory concentration (IC50) was determined as 7.2 nM.

On to `Cc1cccc(C[C@@H]2NC(=O)[C@H](CC(=O)O)NC(=O)[C@H](Cc3ccc(OCC(=O)O)cc3)NC(=O)[C@H](CN)NC(=O)CSC[C@@H](C(=O)N[C@@H](C)C(=O)N[C@@H](CC(=O)O)C(=O)NCC(=O)NCCCCCCCCCCC(=O)O)NC(=O)[C@H]([C@@H](C)O)NC(=O)[C@H](C(C)C)NC(=O)[C@H](CC3CCCCC3)NC(=O)[C@H](CCN)NC(=O)[C@@H](CC(C)C)NC(=O)[C@H](CCCN)NC(=O)[C@H](CCCNC(N)=O)NC(=O)[C@H](Cc3ccc(-c4ccccc4)cc3)NC(=O)[C@H](C(C)C)NC2=O)c1` [Compound 1002] ({CH2CO}-[Dap]Y(Carboxymethyl)D[Phe(3-Me)]V[Bip][Cit][Orn][dL][Dab][Cha]VTCADG[Aun]-OH; thioether N-14), for which the IC50 came to 6 nM.

Turning to `Cc1cccc(C[C@@H]2NC(=O)[C@H](CC(=O)O)NC(=O)[C@H](Cc3ccc(C(=O)O)cc3)NC(=O)[C@H](Cc3ccc(C#N)cc3)NC(=O)CSC[C@@H](C(=O)N[C@@H](CCN)C(=O)NCCCCCCCCCCC(=O)O)NC(=O)[C@H](CO)NC(=O)[C@H](C(C)(C)O)NC(=O)[C@H](CC3CCCCC3)NC(=O)[C@H](CCN)NC(=O)[C@@H](CC(C)C)NC(=O)[C@H](CCCN)NC(=O)[C@H](Cc3ccc(OCC(=O)O)cc3)NC(=O)[C@H](Cc3ccc(-c4ccccc4)cc3)NC(=O)[C@H](Cc3ccc(OCC(=O)O)cc3)NC2=O)c1` [Compound 1003] ({CH2CO}-[Phe(4-CN)][Phe(4-COOH)]D[Phe(3-Me)]Y(Carboxymethyl)[Bip]Y(Carboxymethyl)[Orn][dL][Dab][Cha][Val(3-OH)]SC[Dab][Aun]-OH; thioether N-14), the 50% inhibitory concentration (IC50) was 14.8 nM.
